Assay results published in patent US20140274881A1, “BIODEGRADABLE THERAPEUTIC NANOPARTICLES CONTAINING AN ANTIMICROBIAL AGENT” (CAROLINAS HEALTHCARE SYSTEM, priority 2008, published 2014).

Experiments:
[1] = In vitro drug release by dialysis method under sink conditions; format: physicochemical; settings: nafcillin-PBS solution without polymer nanoparticles in dialysis bag, 37° C.
Text: A dialysis method was used in the measurement of in vitro drug release. Drug release studies were done under sink conditions; the volume of the buffer was kept large (outer sink) compared to the volume of drug-loaded nanoparticles suspension in the dialysis bag. The (theoretical) situation of infinite dilution is known as a perfect sink; however, even though perfect sink conditions are never attainable in practice, they are the only situation in which a true release profile can be measured. For a given matrix volume, an increase in liquid volume or volume ratio will promote drug release due to the lower drug concentrations in the medium. The system developed was continuously agitated, resulting in the faster diffusion of drug through the dialysis membrane to the outer sink. FIG. 9A is a plot of cumulative drug release (%) versus time in hours, for release of nafcillin from nafcillin-PBS solution loaded in a dialysis bag with a molecular weight cut-off of 6 kDa at 37° C. FIG. 9B is a plot of cumulative drug release (%) versus time in hours for release of nafcillin from nafcillin-PBS solution loaded in a dialysis bag with a molecular weight cut-off of 12-14 kDa at 37° C. The release of nafcillin from nafcillin-PBS solution without polymer nanoparticles was rapid, since 97% of the drug was released within the first nine (9) hours. […]

intracellular S. aureus = test: Viability of intracellular S. aureus in infected osteoblasts treated with nanoparticles; format: cell-based, Staphylococcus aureus; settings: nafcillin alone, no nanoparticles
Procedure: The viability of intracellular S. aureus following treatment with nanoparticles was determined. S. aureus was allowed to infect cultured primary mouse osteoblasts as described herein, followed by removal and killing of all remaining extracellular bacteria in culture. […] None of the nanoparticle preparations had any effect on osteoblast viability. All loaded formulations of particles caused a significant decrease in the viability of intracellular S. aureus inside infected osteoblasts at both 24 and 48 hours.
FIG. 11 is a bar graph showing viability of intracellular S. aureus in osteoblasts treated with nanoparticles or nanoparticles loaded with nafcillin. Primary mouse osteoblasts were infected intracellularly with S. aureus and were subsequently treated with unloaded nanoparticles (G1 and G2) or nanoparticles loaded with nafcillin (G1.1, 1.2, 2.1 and 2.2) for 1 (0 hour), 24 and 48 hours. Osteoblasts were subsequently lysed following these time intervals with a solution containing 0.1% triton X-100, and serial dilutions of the lysates were plated on tryptic soy agar (TSA). Following an overnight incubation at 37° C., numbers of viable bacteria were enumerated, *, P<0.05 versus S. aureus-treated osteoblasts at the same time point. […]
Following resuspension in OBGM, bacterial cell density is determined via spectrophotometric analysis. […]

- cumulative drug release within the first nine (9) hours [1]: 97%
Structure (SMILES): CCOc1ccc2ccccc2c1C(=O)N[C@@H]1C(=O)N2[C@@H]1SC(C)(C)[C@@H]2C(=O)O [nafcillin, Nafcillin]
- viability of intracellular S. aureus, compared with untreated infected osteoblasts (intracellular S. aureus): indistinguishable from untreated S. aureus-infected osteoblasts
